The target in experiment [1] is T1, IL23R (Homo sapiens, UniProt Q5VWK5).
T1 construct: Tag2 (identity not disclosed); purchased PerkinElmer 64BDPIL23PEH
T1 sequence (Q5VWK5 24-355 limits assumed): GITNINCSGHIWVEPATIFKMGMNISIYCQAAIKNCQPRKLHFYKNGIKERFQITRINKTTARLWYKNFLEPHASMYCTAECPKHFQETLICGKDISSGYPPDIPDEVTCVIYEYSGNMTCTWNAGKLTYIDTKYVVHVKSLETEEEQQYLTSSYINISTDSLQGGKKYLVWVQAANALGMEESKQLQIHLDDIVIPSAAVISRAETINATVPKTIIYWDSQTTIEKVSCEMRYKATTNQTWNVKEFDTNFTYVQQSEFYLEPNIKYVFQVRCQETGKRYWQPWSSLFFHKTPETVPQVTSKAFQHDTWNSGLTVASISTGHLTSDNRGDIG
Description: Competing with IL23 for binding to IL23R (HTRF, IL23/IL23R binding assay kit). Conditions: 2 hours incubation at room temperature. The procedure:
(§1) The compounds of the present disclosure were screened in IL23/IL23R BINDING ASSAY KITS (PerkinElmer Cat #64BDPIL23PEH). The screening of the compounds of the present disclosure was carried out by using a multi-well plate (suitable for HTRF determination). Generally, 2 μl of several compounds of the present disclosure and STANDARD SOLUTIONS in KIT were first respectively added to the wells of the multi-well plate. 4 μl of Tag1-IL23, 4 μl of Tag2-IL23R, and 10 μL of pre-mixed Anti-Tag1 Eu Cryptate Antibody and Anti-Tag2 d2 reagent were necessarily added to all the wells. The multi-well plate was protected from light by an opaque cover membrane, and the opaque cover membrane was then removed
as §1, with “removed after 2 hours of incubation at room temperature. The signal value was read by an HTRF-compatible detection instrument to detect IC50 value.” for “removed”
(§2) The inhibition rate was calculated as follows: […]
By using log (inhibitor) vs. response—Variable slope (four parameters) in Graphpad, the data of HTRF experiment results were subjected to non-linear regression fitting to fit a curve and obtain the IC50 value.

The test system of experiment [2] is activation of STAT3 phosphorylation by hIL23 in DB cells. Nature of the experiment: Blocking the activation of STAT3 phosphorylation by hIL23 in DB cells (p-STAT3 ELISA). The class given is cell-based, Human. As to conditions: DB cells stimulated by rhIL-23 0.5 nM, half an hour; read-out: pStat3 IC50. How it is done: To determine the inhibitory activity of the compounds of the present disclosure on the activation of STAT3 phosphorylation by hIL23 in DB cells
The compounds produced above were added to DB (ATCC Cat #CRL-2289) cells to inhibit the signal transduction of rhIL-23 cytokine. The screening of compounds was carried out by a multi-well plate (suitable for ELISA assay). Generally, in the presence of some of the above compounds of the present disclosure, 6.25×10^6 cells/ml of DB cells were stimulated by rhIL-23 (0.5 nM, R&D SYSTEMS) in RPMI medium (Invitrogen) containing 10% of FBS, and after half an hour, lysis was carried out on ice using 50 μL of 2×lysis buffer (CST). The content of p-STAT3 in the lysate was determined by PathScan Phospho-Stat3 (Tyr705) Sandwich ELISA Kit (CST Cat #7300C), so as to calculate the activity of the compounds of the present disclosure in blocking rhIL23 signal transduction in DB cells.
as §2
By using log (inhibitor) vs. response—Variable slope (four parameters) in Graphpad, the data of ELISA experiment results were subjected to non-linear regression fitting to fit a curve and obtain the IC50 value.

Molecules are shown by their SMILES. Positions of bridges follow the written chain, without caps; N, C: chain ends. Non-standard residues stand in square brackets, D forms with d. Residues, ends and D or L forms follow the SMILES beside them. Trp(7-Me) = Cc1cccc2c(C[C@H](N)C(=O)O)c[nH]c12; 2Nal = N[C@@H](Cc1ccc2ccccc2c1)C(=O)O; Thp(SO2) = NC1(C(=O)O)CCS(=O)(=O)CC1; AEF = NCCOc1ccc(C[C@H](N)C(=O)O)cc1; Ac6c(4-thia) = NC1(C(=O)O)CCSCC1; 3Pal = N[C@@H](Cc1cccnc1)C(=O)O; Pen = CC(C)(S)[C@H](N)C(=O)O; Sar = CNCC(=O)O

`CC(=O)NCCCC[C@@H]1NC(=O)[C@H](Cc2c[nH]c3c(C)cccc23)NC(=O)[C@H]([C@@H](C)O)NC(=O)[C@H](CC(N)=O)NC(=O)[C@@H](NC(C)=O)C(C)(C)SSC(C)(C)[C@@H](C(=O)N[C@@H](Cc2ccc(OCCN)cc2)C(=O)N[C@@H](Cc2ccc3ccccc3c2)C(=O)NC2(C(=O)N[C@@H](CCC(=O)O)C(=O)N[C@@H](CC(N)=O)C(=O)N[C@@H](Cc3cccnc3)C(=O)N(C)CC(N)=O)CCS(=O)(=O)CC2)NC1=O` [Example 4-14] (Ac-[Pen]NT[Trp(7-Me)]K(Ac)[Pen][AEF][2Nal][Thp(SO2)]EN[3Pal][Sar]-NH2; disulfide 1-6): the results for the IC50 in experiment [1] and in experiment [2] were 1.11 nM and 0.0016 nM, respectively.

The compound `CC(=O)NCCCC[C@@H]1NC(=O)[C@H](Cc2c[nH]c3c(C)cccc23)NC(=O)[C@H]([C@@H](C)O)NC(=O)[C@H](CC(N)=O)NC(=O)[C@@H](NC(C)=O)C(C)(C)SSC(C)(C)[C@@H](C(=O)N[C@@H](Cc2ccc(OCCN)cc2)C(=O)N[C@@H](Cc2ccc3ccccc3c2)C(=O)NC2(C(=O)N[C@@H](CCC(=O)O)C(=O)N[C@@H](CC(N)=O)C(=O)N[C@@H](Cc3cccnc3)C(=O)N(C)CCNC(=O)CCCCC[N+](C)(C)C)CCOCC2)NC1=O` [Example 12] gave an IC50 in experiment [1] of 1.14 nM.

As for `CCCCCCC(=O)NCCCCCCCC(=O)NCC[N+](C)(C)CCOCCOCCC(=O)NCCN(C)C(=O)[C@H](Cc1cccnc1)NC(=O)[C@H](CC(N)=O)NC(=O)[C@H](CCC(=O)O)NC(=O)C1(NC(=O)[C@H](Cc2ccc3ccccc3c2)NC(=O)[C@H](Cc2ccc(OCCN)cc2)NC(=O)[C@H]2NC(=O)[C@H](CCCCNC(C)=O)NC(=O)[C@H](Cc3c[nH]c4c(C)cccc34)NC(=O)[C@H]([C@@H](C)O)NC(=O)[C@H](CC(N)=O)NC(=O)[C@@H](NC(C)=O)C(C)(C)SSC2(C)C)CCOCC1` [Example 2], the IC50 was found to be 0.23 nM in experiment [1] and 0.01 nM in experiment [2].

In turn, `CC(=O)NCCCC[C@@H]1NC(=O)[C@H](Cc2c[nH]c3c(C)cccc23)NC(=O)[C@H]([C@@H](C)O)NC(=O)[C@H](CC(N)=O)NC(=O)[C@@H](NC(C)=O)C(C)(C)SSC(C)(C)[C@@H](C(=O)N[C@@H](Cc2ccc(OCCN)cc2)C(=O)N[C@@H](Cc2ccc3ccccc3c2)C(=O)NC2(C(=O)N[C@@H](CCC(=O)O)C(=O)N[C@@H](CC(N)=O)C(=O)N[C@@H](Cc3cccnc3)C(=O)N(C)CCNC(=O)CCCCC[N+](C)(C)C)CCC(F)(F)CC2)NC1=O` [Example 1-19] yielded an IC50 in experiment [1] of 1.35 nM.

For `CC(=O)NCCCC[C@@H]1NC(=O)[C@H](Cc2c[nH]c3c(C)cccc23)NC(=O)[C@H]([C@@H](C)O)NC(=O)[C@H](CC(N)=O)NC(=O)[C@@H](NC(C)=O)C(C)(C)SSC(C)(C)[C@@H](C(=O)N[C@@H](Cc2ccc(OCCN)cc2)C(=O)N[C@@H](Cc2ccc3ccccc3c2)C(=O)NC2(C(=O)N[C@@H](CCC(=O)O)C(=O)N[C@@H](CC(N)=O)C(=O)N[C@@H](Cc3cccnc3)C(=O)N(C)CC(N)=O)CCSCC2)NC1=O` [Example 3-14] (Ac-[Pen]NT[Trp(7-Me)]K(Ac)[Pen][AEF][2Nal][Ac6c(4-thia)]EN[3Pal][Sar]-NH2; disulfide 1-6), the IC50 stood at 1.09 nM in experiment [1] and 0.0014 nM in experiment [2].

With `CC(=O)NCCCC[C@@H]1NC(=O)[C@H](Cc2c[nH]c3c(C)cccc23)NC(=O)[C@H]([C@@H](C)O)NC(=O)[C@H](CC(N)=O)NC(=O)[C@@H](NC(C)=O)C(C)(C)SSC(C)(C)[C@@H](C(=O)N[C@@H](Cc2ccc(OCCN)cc2)C(=O)N[C@@H](Cc2ccc3ccccc3c2)C(=O)NC2(C(=O)N[C@@H](CCC(=O)O)C(=O)N[C@@H](CC(N)=O)C(=O)N[C@@H](Cc3cccnc3)C(=O)N(C)CCNC(=O)CCCCC[N+](C)(C)C)CCSCC2)NC1=O` [Example 3-19], the IC50 in experiment [1] was determined as 1.13 nM.

Turning to `CC(=O)NCCCC[C@@H]1NC(=O)[C@H](Cc2c[nH]c3c(C)cccc23)NC(=O)[C@H]([C@@H](C)O)NC(=O)[C@H](CC(N)=O)NC(=O)[C@@H](NC(C)=O)C(C)(C)SSC(C)(C)[C@@H](C(=O)N[C@@H](Cc2ccc(OCCN)cc2)C(=O)N[C@@H](Cc2ccc3ccccc3c2)C(=O)NC2(C(=O)N[C@@H](CCC(=O)O)C(=O)N[C@@H](CC(N)=O)C(=O)N[C@@H](Cc3ccncc3)C(=O)N(C)CC(N)=O)CCC(F)(F)CC2)NC1=O` [Example 1-14], in experiment [1], the IC50 worked out at 1.14 nM.

As for `CC(=O)NCCCC[C@@H]1NC(=O)[C@H](Cc2c[nH]c3c(C)cccc23)NC(=O)[C@H]([C@@H](C)O)NC(=O)[C@H](CC(N)=O)NC(=O)[C@@H](NC(C)=O)C(C)(C)SSC(C)(C)[C@@H](C(=O)N[C@@H](Cc2ccc(OCCN)cc2)C(=O)N[C@@H](Cc2ccc3ccccc3c2)C(=O)NC2(C(=O)N[C@@H](CCC(=O)O)C(=O)N[C@@H](CC(N)=O)C(=O)N[C@@H](Cc3cccnc3)C(=O)N(C)CCNC(=O)CCCCC[N+](C)(C)C)CCS(=O)(=O)CC2)NC1=O` [Example 4-19], in experiment [1], the IC50 is 1.18 nM.

Regarding `CC(=O)NCCCC[C@@H]1NC(=O)[C@H](Cc2c[nH]c3c(C)cccc23)NC(=O)[C@H]([C@@H](C)O)NC(=O)[C@H](CC(N)=O)NC(=O)[C@@H](NC(C)=O)C(C)(C)SSC(C)(C)[C@@H](C(=O)N[C@@H](Cc2ccc(OCCN)cc2)C(=O)N[C@@H](Cc2ccc3ccccc3c2)C(=O)NC2(C(=O)N[C@@H](CCC(=O)O)C(=O)N[C@@H](CC(N)=O)C(=O)N[C@@H](Cc3cccnc3)C(=O)N(C)CCNC(=O)COCCOCCNC(=O)COCCOCCNC(=O)CC[C@H](NC(=O)CCCCCCCCCCCCCCCCC(=O)O)C(=O)O)CCOCC2)NC1=O` [Example 6], in experiment [1], the IC50 came to 1.25 nM.

Compound `CC(=O)NCCCC[C@@H]1NC(=O)[C@H](Cc2c[nH]c3c(C)cccc23)NC(=O)[C@H]([C@@H](C)O)NC(=O)[C@H](CC(N)=O)NC(=O)[C@@H](NC(C)=O)C(C)(C)SSC(C)(C)[C@@H](C(=O)N[C@@H](Cc2ccc(OCCN)cc2)C(=O)N[C@@H](Cc2ccc3ccccc3c2)C(=O)NC2(C(=O)N[C@@H](CCC(=O)O)C(=O)N[C@@H](CC(N)=O)C(=O)N[C@@H](Cc3cccnc3)C(=O)N(C)CCNC(=O)CCOCCOCC[N+](C)(C)C)CCOCC2)NC1=O` [Example 3] gave an IC50 in experiment [1] of 1.23 nM.

For the origin of these results see patent publication US20260193294A1, “POLYPEPTIDE INHIBITOR, AND PREPARATION METHOD THEREFOR AND USE THEREOF” (SHANGHAI HANSOH BIOMEDICAL CO., LTD., priority 2022, published 2026).
